Source: ChEMBL document CHEMBL1201862, “PubChem BioAssay data set” (2004)
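Growth conditions: 96-well plates. Treatment: test compound, 48 hours, 5 concentrations. Analysis: linear interpolation between bracketing concentrations; unreached endpoints set to highest concentration. GI50 is the concentration that inhibits growth by half.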 The source made the active and inactive calls. Cut-off read from the data, not from the text of the source: active = GI50 up to about 1.1 µM and inactive = higher.

Columns and labels:
Assay in all cases: DTP human tumour cell line panel, 48 h
COLO 205 = test system: COLO 205
HCT-15 = test system: HCT-15
MCF7 = test system: MCF7
CAKI-1 = test system: CAKI-1
UACC-62 = test system: UACC-62
HCC 2998 = test system: HCC 2998
Hs-578T = test system: Hs-578T
MDA-N = test system: MDA-N
UACC-257 = test system: UACC-257
SK-MEL-2 = test system: SK-MEL-2
M14 = test system: M14
OVCAR-8 = test system: OVCAR-8
HOP-92 = test system: HOP-92
A549 = test system: A549
ACHN = test system: ACHN
NCI-H23 = test system: NCI-H23
SW-620 = test system: SW-620
SR = test system: SR
RPMI-8226 = test system: RPMI-8226
SNB-19 = test system: SNB-19
T47D = test system: T47D
HOP-62 = test system: HOP-62
MOLT-4 = test system: MOLT-4
UO-31 = test system: UO-31
OVCAR-5 = test system: OVCAR-5
NCI-H226 = test system: NCI-H226
K562 = test system: K562
PC-3 = test system: PC-3
KM12 = test system: KM12
OVCAR-4 = test system: OVCAR-4
SF-295 = test system: SF-295
U-251 = test system: U-251
RXF 393 = test system: RXF 393
SN12C = test system: SN12C
SK-OV-3 = test system: SK-OV-3
TK-10 = test system: TK-10
CCRF-CEM = test system: CCRF-CEM
HCT-116 = test system: HCT-116
DU-145 = test system: DU-145
SK-MEL-5 = test system: SK-MEL-5
MDA-MB-435 = test system: MDA-MB-435
EKVX = test system: EKVX
NCI/ADR-RES = test system: NCI/ADR-RES
SK-MEL-28 = test system: SK-MEL-28
786-0 = test system: 786-0
A498 = test system: A498
SF-268 = test system: SF-268
SF-539 = test system: SF-539
SNB-75 = test system: SNB-75
HT-29 = test system: HT-29
BT-549 = test system: BT-549
Malme-3M = test system: Malme-3M
MDA-MB-231 = test system: MDA-MB-231
OVCAR-3 = test system: OVCAR-3
IGROV-1 = test system: IGROV-1
NCI-H460 = test system: NCI-H460
NCI-H522 = test system: NCI-H522

SMILES: COC(=O)C1=C(C)N2[C@H](C(=O)O)CS[C@@]2(C)[C@H](C(=O)OC)[C@H]1c1cccc([N+](=O)[O-])c1
- GI50 (COLO 205): > 100 µM (inactive)
- GI50 (HCT-15): > 100 µM
- GI50 (MCF7): > 100 µM (inactive)
- GI50 (CAKI-1): > 100 µM (inactive)
- GI50 (UACC-62): > 100 µM (inactive)
- GI50 (HCC 2998): > 100 µM (inactive)
- GI50 (Hs-578T): > 100 µM (inactive)
- GI50 (MDA-N): > 100 µM (inactive)
- GI50 (UACC-257): > 100 µM (inactive)
- GI50 (SK-MEL-2): > 100 µM (inactive)
- GI50 (M14): > 100 µM (inactive)
- GI50 (OVCAR-8): > 100 µM (inactive)
- GI50 (HOP-92): 54.5 µM (inactive)
- GI50 (A549): > 100 µM (inactive)
- GI50 (ACHN): > 100 µM (inactive)
- GI50 (NCI-H23): > 100 µM (inactive)
- GI50 (SW-620): > 100 µM (inactive)
- GI50 (SR): > 100 µM (inactive)
- GI50 (RPMI-8226): > 100 µM (inactive)
- GI50 (SNB-19): > 100 µM (inactive)
- GI50 (T47D): > 100 µM (inactive)
- GI50 (HOP-62): > 100 µM (inactive)
- GI50 (MOLT-4): > 100 µM (inactive)
- GI50 (UO-31): > 100 µM (inactive)
- GI50 (OVCAR-5): > 100 µM (inactive)
- GI50 (NCI-H226): > 100 µM (inactive)
- GI50 (K562): > 100 µM (inactive)
- GI50 (PC-3): > 100 µM (inactive)
- GI50 (KM12): > 100 µM (inactive)
- GI50 (OVCAR-4): > 100 µM (inactive)
- GI50 (SF-295): > 100 µM (inactive)
- GI50 (U-251): > 100 µM (inactive)
- GI50 (RXF 393): > 100 µM (inactive)
- GI50 (SN12C): > 100 µM (inactive)
- GI50 (SK-OV-3): > 100 µM (inactive)
- GI50 (TK-10): > 100 µM (inactive)
- GI50 (CCRF-CEM): > 100 µM (inactive)
- GI50 (HCT-116): > 100 µM (inactive)
- GI50 (DU-145): > 100 µM (inactive)
- GI50 (SK-MEL-5): > 100 µM (inactive)
- GI50 (MDA-MB-435): > 100 µM (inactive)
- GI50 (EKVX): > 100 µM (inactive)
- GI50 (NCI/ADR-RES): > 100 µM (inactive)
- GI50 (SK-MEL-28): > 100 µM (inactive)
- GI50 (786-0): > 100 µM (inactive)
- GI50 (A498): > 100 µM (inactive)
- GI50 (SF-268): > 100 µM (inactive)
- GI50 (SF-539): > 100 µM (inactive)
- GI50 (SNB-75): > 100 µM (inactive)
- GI50 (HT-29): > 100 µM (inactive)
- GI50 (BT-549): > 100 µM (inactive)
- GI50 (Malme-3M): > 100 µM (inactive)
- GI50 (MDA-MB-231): > 100 µM (inactive)
- GI50 (OVCAR-3): > 100 µM (inactive)
- GI50 (IGROV-1): > 100 µM (inactive)
- GI50 (NCI-H460): > 100 µM (inactive)
- GI50 (NCI-H522): > 100 µM (inactive)
